Data set [1] has as its system anesthetized rats. Nature of the data set: Anti-arrhythmic activity in anesthetized rats (benzene/adrenaline challenge, EKG recording). The data set is classed as in vivo, Male Sprague-Dawley rats. To be noted: for protection against tachyarrhythmia (increased heart rate) produced by adrenaline: potency: drug administered from time 0 to time 120 minutes; for time at which activity against VPB is lost: drug administration time 0 to 120 min; for PR interval / QRS interval / QT interval / Heart rate (beats/minute) / Inhibition of tachycardia / Number of VPB / Inhibition of VPB: isolated enantiomer as compared to the respective racemate; for PR interval / QRS interval / QT interval: EKG; for Number of VPB / Inhibition of VPB: benzene/adrenaline challenge; for Inhibition of VPB: 4 mg/kg i.v. then 12 mg/kg/h for 2 hours; for activity against VPB at the end of the washout period: time 180 min; for inhibition of the formation of ventricular premature beats (VPB): whole period of drug administration (time 0 to 120 min). As to the method:
Male Sprague-Dawley rats with body weights of 410 ± 30 g (Harlan Sprague Dawley Inc., Indianapolis, IN), were anesthetized with sodium pentobarbital (50 mg/kg i.p. - Butler Co., Columbus, OH). The skin from the neck area was removed and the jugular veins on both sides were cleared of connective tissue. Both jugular veins and the left carotid artery were isolated, and the latter tied up cranially with a surgical silk (ETHICON 4-0, Ethicon Inc., Australia). A plastic catheter ([…] 19ga, Vecton Dickinson, Sandy, UT), filled with a solution containing 10% sodium heparin (Elkins-Sinn Inc., Cherry Hill, NJ) in normal saline (100 U/ml sodium heparin), was introduced into the artery and fixed with surgical silk.
The catheter was connected to a pressure transducer (OHMEDA P23-XL, Ohmeda Medical Devices Division Inc., Madison, WI), filled with the same heparinized 0.9% NaCl solution, to register beat-to-beat arterial pressure. Needle electrodes were inserted s.c., and together with the pressure transducer, were joined to a GOULD TA 2000 recorder. Leads II, aVF and intraarterial blood pressure were monitored simultaneously throughout the experiments and recorded at certain intervals at 50 and 200 mm/sec paper speed.
The surgery was completed with an incision on the trachea where a short plastic tubing was placed and the animal was connected to a rodent-model ventilator (HARVARD Model 683, Harvard Apparatus, Inc., Holliston, MA). The animals were ventilated in a controlled way, depending on their spontaneous breathing frequency (55-75/min).
Drug administrations were carried out through i.v. catheters (TERUMO 24 GA*3/4", Terumo Medical Corp., Elkton, MD) inserted into both jugular veins. The left side was used for drug infusions by means of a syringe pump (SAGE INSTRUMENTS, Model 341B, Orion Res. Inc., Boston, MA), and the right side was used for adrenaline injections. The experiments were started after at least 15 minutes of stabilization. Benzene/adrenaline challenges were performed as follows: the respirator inlet was connected to a 50-ml bubbler half-full with benzene (Fisher Scientific, Fair Lawn, NJ) so that the inspired air was saturated with benzene vapor. The animal was ventilated with benzene vapor for two minutes. The tidal volume was typically 1 ml/100g of animal. During the last 30 seconds of benzene ventilation, 10 µg/kg adrenaline solution (in 0.9% NaCl) was injected into the right jugular vein. […] These arrhythmias could be elicited repeatedly. After three control VTs (at -30, -20 and -10 minutes), the test compounds were injected slowly during 30 seconds at a dose of 4 mg/kg i.v., immediately followed by a slow infusion of 12 mg/kg/h for 2 hours. The flow rate during the infusion period was 1 ml/h.
There were 5 rats per test compound and each animal served as its own control. The ability of the different drugs to suppress arrhythmias was tested against repeated benzene/adrenaline challenges at 5, 15, 30, 45, 60, 90, 120 (end of drug infusion), 135, 150, 165 and 180 minutes after the i.v. bolus injection. The amplitudes of the systolic arterial pressure and diastolic arterial pressure […] with the help of a pressure-amplitude calibration curve. Heart rate, number of ventricular complexes during the occurrence of VTs and VPBs, and certain ECG parameters (PR, QRS, QT durations and RR cycle lengths in msec) were also recorded and measured manually. At each time-point, 3-5 cycles were measured and the average values were entered into EXCEL Windows 97. The average and standard deviation for the five experimental animals per compound were calculated.

Data set [2] is classed as in vitro ADME. To be noted: human. As to the method:
Venous blood (60 ml) was collected in heparinized 15-ml Vacutainer® tubes from the forearm of five human volunteers. Each tube contained 1,000 units of heparin sodium salt. The blood was immediately centrifuged at 2,000 g for 10 minutes and the plasma was collected. Immediately after collection, the plasma was divided into 2-ml aliquots in borosilicate glass tubes (5-ml capacity) capped with a plastic stopper. The tubes were then equilibrated in a 37°C-water bath for at least 15 minutes before the test samples were added.
Stock solutions were prepared by dissolving 25 µmoles (about 18 mg) of each of the test compounds in 10 ml of deionized water. To each of the glass tubes containing 2 ml of fresh plasma, equilibrated at 37°C, was added 40 µl of the stock solutions (one test compound per tube). The plasma/stock solutions were then mixed. Samples (250 µl) were collected at time 0 (immediately after mixing test compounds in plasma) and then at 30, 60, 90, 120, 180, 240, and 300 minutes. The test tubes were capped, to avoid concentration due to evaporation, and left in the 37°C bath during the entire experiment. Each aliquot was immediately introduced into a 1.5-ml microfuge tube containing 20 µl of a 0.01% solution of diethyl paranitrophenylphosphate (paraoxon) in ethanol in order to inhibit esterase activity. The tubes were then capped and vortexed, then kept at -20°C until analysis. The samples were thawed and mixed with 750 µl of a 0.1 % solution of trifluoroacetic acid (TFA) in acetonitrile, vortexed for thorough mixing, and then centrifuged at 12,000 g for 15 minutes. The supernatant was collected for injection in the HPLC system.
The HPLC mobile phase consisted of acetonitrile and water containing 0.1% TFA and 400 mg/L benzyltriethylammonium chloride (BTEAC) in the following proportions and flow rates: 85% acetonitrile and 15% water at 2.0 ml/min. The detection wavelength was set at 242 nm, and the injected volume was 100 µL. The HPLC peaks were recorded, and the integrated values were plotted against time using the SIGMAPLOT software version 4.0 for WINDOWS. The resulting curves were fitted to a first-order exponential decay equation from which hydrolysis half-lives were calculated.

Structures are written as SMILES.

The results in this text go back to patent EP1857450A1, “Novel enantiomeric compounds for treatment of cardiac arrhythmias and methods of use” (Aryx Therapeutics, priority 1999, dated 2001).

Regarding `CC[C@H](C)OC(=O)Cc1oc2ccccc2c1C(=O)c1cc(I)c(OCCN(CC)CC)c(I)c1` [ATI-2042], the “protection against tachyarrhythmia (increased heart rate) produced by adrenaline: potency” value in data set [1] is “very good protection against this tachyarrhythmia”.
On the same count and under the same terms, with `CCN(CC)CCOc1c(I)cc(C(=O)c2c(CC(=O)OC(C)C(C)C)oc3ccccc23)cc1I` (stereo not drawn) [ATI-2055] the entry was “inhibits the tachycardia”.
For `CC[C@@H](C)OC(=O)Cc1oc2ccccc2c1C(=O)c1cc(I)c(OCCN(CC)CC)c(I)c1` [Compound R-2042, (R)-sec-Butyl 2-[3-(3,5-diiodo-4-(2-diethylaminoethyloxy)benzoyl)]benzofurane-acetate], the “Plasma half-life” value in data set [2] came to 5.0 h. For the same compound, the “time at which activity against VPB is lost” value in data set [1] (benzene vapors and adrenaline) was ~100 min. In data set [1], the PR interval entry was “shorter”, the QRS interval result is “no change”, the QT interval result is listed as “no change” and the “Number of VPB” value was “lower”. In data set [1], the “Inhibition of VPB” value is “longer” and the “activity against VPB at the end of the washout period” value (“activity against VPB at the end” for short) was “completely inactive”. Further, in data set [1] (adrenaline injection), the “Heart rate (beats/minute)” value is reported as “lower” and the Inhibition of tachycardia entry was “longer”.
Consider `CCN(CC)CCOc1c(I)cc(C(=O)c2c(CC(=O)O[C@H](C)C(C)C)oc3ccccc23)cc1I` [Compound R-2055, (R)-(3-Methyl)-2butyl 2-[3-(3,5-diiodo-4-(2-diethylaminoethyloxy)benzoyl)]benzo-furaneacetate], for which the “Plasma half-life” value in data set [2] turned out to be 11.7 h. Moreover, in data set [1] (adrenaline injection), the “duration of effect on tachycardia” value is reported as “longer-lasting effect than S-2055”, the “Heart rate (beats/minute)” value is reported as “lower” and the Inhibition of tachycardia entry is given as “longer”. In data set [1], the PR interval result was “shorter”, the QRS interval result is listed as “longer”, the QT interval result was “no change” and the “Number of VPB” value is “lower”. In addition, in data set [1], the “Inhibition of VPB” value is given as “longer” and the “activity against VPB at the end” value was “still retained part of its activity”. Further, in data set [1] (benzene vapors and adrenaline), the “inhibition of the formation of ventricular premature beats (VPB)” value is on record as “totally inhibited the formation of ventricular premature beats”.
For `CC[C@H](C)OC(=O)Cc1oc2ccccc2c1C(=O)c1cc(I)c(OCCN(CC)CC)c(I)c1` [Compound S-2042, (S)-sec-Butyl 2-[3-(3,5-diiodo-4-(2-diethylaminoethytoxy)benzoyl)]benzofurane-acetate], the “Plasma half-life” value in data set [2] was 7.3 h. Moreover, in data set [1], the “protection against tachyarrhythmia (increased heart rate) produced by adrenaline: potency” value is “more potent and longer acting then R-2042”; the PR interval result is “longer”; the QRS interval result is “longer”; the QT interval result is “longer”. Besides, in data set [1], the “Number of VPB” value is recorded as “lower”, the “Inhibition of VPB” value is “longer” and the “activity against VPB at the end” value is reported as “still retained part of its activity”. Besides, in data set [1] (adrenaline injection), the “Heart rate (beats/minute)” value is “lower” and the Inhibition of tachycardia entry is recorded as “longer”. In data set [1] (rat, in vivo), the “effects on the PR segment of the EKG recording (Class-IV activity): potency” value is “much more potent than R-2042 and the racemate R,S-2042”; the “effects on the QT segment of the EKG recording (Class-III properties): potency” value is “the most potent and the longest acting”. Further, in data set [1] (benzene vapors and adrenaline), the “inhibition of the formation of ventricular premature beats (VPB)” value is “totally inhibited the formation of ventricular premature beats”.
For `CCN(CC)CCOc1c(I)cc(C(=O)c2c(CC(=O)O[C@@H](C)C(C)C)oc3ccccc23)cc1I` [Compound S-2055, (S) - (3 - Methyl) - 2 butyl 2-[3-(3,5-diiodo-4-(2-diethylaminoethyloacy)benzoyl)]benzo-furaneacetate], in data set [2], the “Plasma half-life” value came to 8.8 h. For the same compound, the “time at which activity against VPB is lost” value in data set [1] (benzene vapors and adrenaline) is listed as ~40 min. In data set [1], the PR interval entry is recorded as “shorter”, the QRS interval entry is “longer”, the QT interval entry was “no change” and the “Number of VPB” value is given as “lower”. Further, in data set [1], the “Inhibition of VPB” value is on record as “longer” and the “activity against VPB at the end” value is “completely inactive”. Also, in data set [1] (adrenaline injection), the “Heart rate (beats/minute)” value is “lower” and the Inhibition of tachycardia entry is “longer”.
In the case of `CC[C@H](C)OC(=O)Cc1oc2ccccc2c1C(=O)c1cc(I)c(OCCN(CC)CC)c(I)c1` [R,S-2042], the “activity against VPB of the racemate relative to the enantiomers” value in data set [1] (benzene vapors and adrenaline) is listed as “even less active than either the R- or the S-isomer”. The “protection against tachyarrhythmia (increased heart rate) produced by adrenaline: potency” value in data set [1] was “the least potent and shortest acting”.
